Test results published in patent US20040082021A1, “Method for assaying compounds or agents for ability to decrease the activity of microsomal prostaglandin E synthase or hematopoietic prostaglandin D synthase” (Aventis Pharmaceuticals Inc., priority 2002, published 2004).

Molecular target: T1, human hPGDS (Homo sapiens, UniProt O60760)
T1 construct: made in house; host or cells: E. coli FL21 (DE3) as printed, pT7-7 vector
Experiment: Fluorescence polarization assay of hematopoietic prostaglandin D synthase (hPGDS)
Assay type: biochemical
Conditions: conversion of PGH2 to PGD2, FIG. 8 histogram
Method: A fluorescence polarization (FP) assay to measure hPGDS activity has also been developed (FIGS. 3 and 4). The assay is configured based on the fluorescence polarization principle. hPGDS was mixed with PGH2, glutathione, and the compound or agent being evaluated. After a short period of time (about 30 seconds), a stop solution containing FeCl2 (20 mM) was added to quench any remaining PGH2, which would undergo spontaneous conversion to a mixture of PGD2 and PGE2, and thus interfere with the quantification of the enzymatic conversion of PGH2 to PGD2 (FIG. 3). A detection solution containing a fluorescence labeled (Texas Red) tracer (PGD2) and anti-PGD2 antibody was then added in order to generate the specific signal that is inversely proportional to the production of PGD2 (FIG. 4). The PGD2 generated from the enzymatic reaction competed specifically for the antibody and released the fluorescence labeled tracer. For reasons discussed above, a decrease or inhibition of PGD2 synthase activity results in increased fluorescence polarization (FP) value. […]
A control mixture was prepared that was identical to the mixture containing the enzyme, wherein the control mixture was treated in a manner identical the mixture containing the enzyme, i.e., same incubation durations, etc. […] The fluorescence polarization measurement was made while the measuring instrument is in FP mode. […]

T1 sequence (O60760 whole entry): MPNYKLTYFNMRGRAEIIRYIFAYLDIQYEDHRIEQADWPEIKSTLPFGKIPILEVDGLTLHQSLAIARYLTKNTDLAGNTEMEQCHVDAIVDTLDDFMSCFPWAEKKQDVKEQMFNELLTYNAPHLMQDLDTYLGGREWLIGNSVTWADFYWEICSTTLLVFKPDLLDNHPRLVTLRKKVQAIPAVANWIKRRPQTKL

c1ccc(C(OC2CCN(CCCc3nn[nH]n3)CC2)c2ccccc2)cc1 [HQL 79]
decrease in activity of hPGDS detected by FP method: decreases the activity of hPGDS
